The values that follow come from patent publication US9873680B2 (Gilead Sciences, Inc., priority 2014, dated 2018).

One may read the inhibition as the change of the read-out against control, counted positive when it falls. For orientation: CC50 means the concentration that lowers cell viability or growth by half.

One data set concerns HIV-IIIb. The data set is described as follows: Test A: Antiviral Assay in MT4 Cells. The format is cell-based, HIV-1. Put shortly: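 Readout was CellTiter-Glo luminescence after 10 min room-temperature lysis, taken 5 days after plating at 37 °C. The 2000 MT-4 cells per well, mixed 1 h beforehand with HIV-IIIb (m.o.i. 0.003), went straight onto the diluted compound.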
Data set [1] is described as follows: Test B: Cytotoxicity Assay. The class given is cell-based. The note with it: human, uninfected MT-4 cells, CellTiter-Glo. The protocol: Test B: Cytotoxicity Assay Compound cytotoxicity and the corresponding CC50 values was determined using the same protocol as described in the antiviral assay (Test A) except that uninfected cells were used.
(In general: In ATP-based viability assays light output follows the ATP content of the culture.)

The mark [2] stands for this setting: Human immunodeficiency virus 1, MT4, 120 h, 0.2 μM drug concentration, MT-4 cells infected with HIV-IIIb, 5 days, values normalized to 100%, average over time, read-out: % inhibition at 0.2 μM (percent inhibition of virus-induced cell killing).

Where two headings read alike, the source gives them in different places.

With `Cc1nccn1C(C)(C)C#Cc1ccc(-c2ccc(Cl)c3c(NS(C)(=O)=O)nn(C)c23)c([C@H](Cc2cc(F)cc(F)c2)NC(=O)Cn2nc(C(F)(F)F)c3c2C(F)(F)[C@@H]2C[C@H]32)n1` [Compound 90, N—((S)-1-(3-(4-chloro-1-methyl-3-(methylsulfonamido)-1H-indazol-7-yl)-6-(3-methyl-3-(2-methyl-1H-imidazol-1-yl)but-1-yn-1-yl)pyridin-2-yl)-2-(3,5-difluorophenyl)ethyl)-2-((3bS,4aR)-5,5-difluoro-3-(trifluoromethyl)-3b,4,4a,5-tetrahydro-1H-cyclopropa[3,4]cyclopenta[1,2-c]pyrazol-1-yl)acetamide], in the data set on HIV-IIIb (setting [2]), the inhibition at 0.2 µM was 98%. In data set [1], this compound registered a CC50 at 5 days of 3.04 µM.
Consider `Cn1nc(NS(C)(=O)=O)c2c(Cl)ccc(-c3ccc(C#CC(C)(C)c4ncc[nH]4)nc3[C@H](Cc3cc(F)cc(F)c3)NC(=O)Cn3nc(C(F)F)c4c3C(F)(F)[C@@H]3C[C@H]43)c21` [Compound 91F, N—((S)-1-(6-(3-(1H-imidazol-2-yl)-3-methylbut-1-yn-1-yl)-3-(4-chloro-1-methyl-3-(methylsulfonamido)-1H-indazol-7-yl)pyridin-2-yl)-2-(3,5-difluorophenyl)ethyl)-2-((3bS,4aR)-3-(difluoromethyl)-5,5-difluoro-3b,4,4a,5-tetrahydro-1H-cyclopropa[3,4]cyclopenta[1,2-c]pyrazol-1-yl)acetamide], for which the inhibition at 0.2 µM in the data set with HIV-IIIb (setting [2]) turned out to be 98%. In data set [1], the midpoint of cytotoxicity, the CC50 at 5 days, lay at 14.6 µM.
Consider `Cn1ccnc1C(C)(C)C#Cc1ccc(-c2ccc(Cl)c3c(NS(C)(=O)=O)nn(C)c23)c([C@H](Cc2cc(F)cc(F)c2)NC(=O)Cn2nc(C(F)F)c3c2C(F)(F)[C@@H]2C[C@H]32)n1` [Compound 92B, N—((S)-1-(3-(4-chloro-1-methyl-3-(methylsulfonamido)-1H-indazol-7-yl)-6-(3-methyl-3-(1-methyl-1H-imidazol-2-yl)but-1-yn-1-yl)pyridin-2-yl)-2-(3,5-difluorophenyl)ethyl)-2-((3bS,4aR)-3-(difluoromethyl)-5,5-difluoro-3b,4,4a,5-tetrahydro-1H-cyclopropa[3,4]cyclopenta[1,2-c]pyrazol-1-yl)acetamide], for which the inhibition at 0.2 µM with HIV-IIIb (setting [2]) was 100%. The compound also had a CC50 at 5 days in data set [1] of 25.9 µM.
For `Cn1nc(NS(C)(=O)=O)c2c(Cl)ccc(-c3cc(-c4cnn(C5COC5)c4)cnc3[C@H](Cc3cc(F)cc(F)c3)NC(=O)Cn3nc(C(F)F)c4c3C(F)(F)[C@@H]3C[C@H]43)c21` [Compound 93D, N—((S)-1-(3-(4-chloro-1-methyl-3-(methylsulfonamido)-1H-indazol-7-yl)-5-(1-(oxetan-3-yl)-1H-pyrazol-4-yl)pyridin-2-yl)-2-(3,5-difluorophenyl)ethyl)-2-((3bS,4aR)-3-(difluoromethyl)-5,5-difluoro-3b,4,4a,5-tetrahydro-1H-cyclopropa[3,4]cyclopenta[1,2-c]pyrazol-1-yl)acetamide], in the data set with HIV-IIIb (setting [2]), the inhibition at 0.2 µM was found to be 93%. Moreover, the CC50 at 5 days in data set [1] worked out at 18.3 µM.
With `Cn1nc(NS(C)(=O)=O)c2c(Cl)ccc(-c3ccc(C#CC4(CO)CC4)nc3[C@H](Cc3cc(F)cc(F)c3)NC(=O)Cn3nc(C(F)F)c4c3C(F)(F)[C@@H]3C[C@H]43)c21` [Compound 94B, N—((S)-1-(3-(4-chloro-1-methyl-3-(methylsulfonamido)-1H-indazol-7-yl)-6-((1-(hydroxymethyl)cyclopropyl)ethynyl)pyridin-2-yl)-2-(3,5-difluorophenyl)ethyl)-2-((3bS,4aR)-3-(difluoromethyl)-5,5-difluoro-3b,4,4a,5-tetrahydro-1H-cyclopropa[3,4]cyclopenta[1,2-c]pyrazol-1-yl)acetamide], in the data set on HIV-IIIb (setting [2]), the inhibition at 0.2 µM stood at 91%. The compound also came in with a CC50 at 5 days in data set [1] of 12.4 µM.
With `Cn1nc(NS(C)(=O)=O)c2c(Cl)ccc(-c3ccc(C#CC4CC4)nc3[C@H](Cc3cc(F)cc(F)c3)NC(=O)Cn3nc(C(F)F)c4c3C(F)(F)[C@@H]3C[C@H]43)c21` [Compound 96, N—((S)-1-(3-(4-chloro-1-methyl-3-(methylsulfonamido)-1H-indazol-7-yl)-6-(cyclopropylethynyl)pyridin-2-yl)-2-(3,5-difluorophenyl)ethyl)-2-((3bS,4aR)-3-(difluoromethyl)-5,5-difluoro-3b,4,4a,5-tetrahydro-1H-cyclopropa[3,4]cyclopenta[1,2-c]pyrazol-1-yl)acetamide], the inhibition at 0.2 µM with HIV-IIIb (Human immunodeficiency virus 1, IIIB, MT4, 0.2 μM drug concentration, comparison with previously published compounds, read-out: Response at 0.2 μM (percent inhibition of virus-induced cell killing)) is 82%; in the data set on HIV-IIIb (setting [2]), 82%. The inhibition at 2 µM in the data set with HIV-IIIb (Human immunodeficiency virus 1, IIIB, MT4, 2 μM drug concentration, comparison with previously published compounds, read-out: Response at 2 μM (percent inhibition of virus-induced cell killing)) turned out to be 82%. Also, in data set [1], the CC50 at 5 days turned out to be 20.1 µM.
`Cn1nc(NS(C)(=O)=O)c2c(Cl)ccc(-c3ccc(C#C[C@@H]4COC(=O)N4)nc3[C@H](Cc3cc(F)cc(F)c3)NC(=O)Cn3nc(C(F)F)c4c3C(F)(F)[C@@H]3C[C@H]43)c21` [Compound 97C, N—((S)-1-(3-(4-chloro-1-methyl-3-(methylsulfonamido)-1H-indazol-7-yl)-6-(((R)-2-oxooxazolidin-4-yl)ethynyl)pyridin-2-yl)-2-(3,5-difluorophenyl)ethyl)-2-((3bS,4aR)-3-(difluoromethyl)-5,5-difluoro-3b,4,4a,5-tetrahydro-1H-cyclopropa[3,4]cyclopenta[1,2-c]pyrazol-1-yl)acetamide]: the inhibition at 0.2 µM in the data set on HIV-IIIb (setting [2]) came out at 89%. Moreover, half-maximal cytotoxicity in data set [1] (CC50 at 5 days) was put at 15.2 µM.
Consider `Cn1nc(NS(C)(=O)=O)c2c(Cl)ccc(-c3ccc(C#CC(C)(C)n4cn[nH]c4=O)nc3[C@H](Cc3cc(F)cc(F)c3)NC(=O)Cn3nc(C(F)F)c4c3C(F)(F)[C@@H]3C[C@H]43)c21` [Compound 98D, N—((S)-1-(3-(4-chloro-1-methyl-3-(methylsulfonamido)-1H-indazol-7-yl)-6-(3-methyl-3-(5-oxo-1H-1,2,4-triazol-4(5H)-yl)but-1-yn-1-yl)pyridin-2-yl)-2-(3,5-difluorophenyl)ethyl)-2-((3bS,4aR)-3-(difluoromethyl)-5,5-difluoro-3b,4,4a,5-tetrahydro-1H-cyclopropa[3,4]cyclopenta[1,2-c]pyrazol-1-yl)acetamide], for which, in the data set with HIV-IIIb (setting [2]), the inhibition at 0.2 µM was found to be 94%. In data set [1], the CC50 at 5 days was 10.4 µM.
Take `Cn1nc(NS(C)(=O)=O)c2c(Cl)ccc(-c3cc(N)c(C#CC4(O)CC(F)(F)C4)nc3[C@H](Cc3cc(F)cc(F)c3)NC(=O)Cn3nc(C(F)(F)F)c4c3C(F)(F)[C@@H]3C[C@H]43)c21` [Compound 100, N—((S)-1-(5-amino-3-(4-chloro-1-methyl-3-(methylsulfonamido)-1H-indazol-7-yl)-6-((3,3-difluoro-1-hydroxycyclobutyl)ethynyl)pyridin-2-yl)-2-(3,5-difluorophenyl)ethyl)-2-((3bS,4aR)-5,5-difluoro-3-(trifluoromethyl)-3b,4,4a,5-tetrahydro-1H-cyclopropa[3,4]cyclopenta[1,2-c]pyrazol-1-yl)acetamide]: in the data set on HIV-IIIb (Human immunodeficiency virus 1, IIIB, MT4, 120 h, read-out: % inhibition at 0.2 μM (percent inhibition of virus-induced cell killing)), the inhibition at 0.2 µM was found to be 87%. The compound also registered a CC50 at 5 days in data set [1] of 8.2 µM.
Turning to `Cn1nc(NS(C)(=O)=O)c2c(Cl)ccc(-c3ccc(C#CC4(O)CC(F)(F)C4)nc3[C@H](Cc3cccc(F)c3)NC(=O)Cn3nc(C(F)F)c4c3C(F)(F)[C@@H]3C[C@H]43)c21` [Compound 101H, N—((S)-1-(3-(4-chloro-1-methyl-3-(methylsulfonamido)-1H-indazol-7-yl)-6-((3,3-difluoro-1-hydroxycyclobutyl)ethynyl)pyridin-2-yl)-2-(3-fluorophenyl)ethyl)-2-((3bS,4aR)-3-(difluoromethyl)-5,5-difluoro-3b,4,4a,5-tetrahydro-1H-cyclopropa[3,4]cyclopenta[1,2-c]pyrazol-1-yl)acetamide], the inhibition at 0.2 µM with HIV-IIIb (setting [2]) was found to be 91%. The compound further showed a cytotoxic concentration (CC50) at 5 days in data set [1] of 9.1 µM.
Taken in the same sequence, the figures for `Cn1nc(NS(C)(=O)=O)c2c(Cl)ccc(-c3ccc(C#CC4(O)CC(F)(F)C4)nc3[C@H](Cc3cccc(F)c3)NC(=O)Cn3nc(C(F)(F)F)c4c3C(F)(F)[C@@H]3C[C@H]43)c21` [Compound 102, N—((S)-1-(3-(4-chloro-1-methyl-3-(methylsulfonamido)-1H-indazol-7-yl)-6-((3,3-difluoro-1-hydroxycyclobutyl)ethynyl)pyridin-2-yl)-2-(3-fluorophenyl)ethyl)-2-((3bS,4aR)-5,5-difluoro-3-(trifluoromethyl)-3b,4,4a,5-tetrahydro-1H-cyclopropa[3,4]cyclopenta[1,2-c]pyrazol-1-yl)acetamide] were 88% and 7.17 µM.
As to `Cn1nc(NS(C)(=O)=O)c2c(Cl)ccc(-c3ccc(C#CC4(O)CC(F)(F)C4)nc3[C@H](Cc3cc(F)cc(F)c3)NC(=O)Cn3nc(C(F)(F)F)c4c3C(F)(F)[C@@H]3C[C@H]43)c21` [Compound 103, N—((S)-1-(3-(4-chloro-1-methyl-3-(methylsulfonamido)-1H-indazol-7-yl)-6-((3,3-difluoro-1-hydroxycyclobutyl)ethynyl)pyridin-2-yl)-2-(3,5-difluorophenyl)ethyl)-2-((3bS,4aR)-5,5-difluoro-3-(trifluoromethyl)-3b,4,4a,5-tetrahydro-1H-cyclopropa[3,4]cyclopenta[1,2-c]pyrazol-1-yl)acetamide], the inhibition at 0.2 µM with HIV-IIIb (setting [2]) worked out at 100%. Further, in data set [1], the CC50 at 5 days worked out at 9.21 µM.
Taken in the same sequence, the figures for `Cn1nc(NS(C)(=O)=O)c2c(Cl)ccc(-c3ccc(C#CC4(O)CC(F)(F)C4)nc3[C@H](Cc3cc(F)cc(F)c3)NC(=O)Cn3nc(C(F)F)c4c3C(F)(F)CCC4(F)F)c21` [Compound 104, (S)—N-(1-(3-(4-chloro-1-methyl-3-(methylsulfonamido)-1H-indazol-7-yl)-6-((3,3-difluoro-1-hydroxycyclobutyl)ethynyl)pyridin-2-yl)-2-(3,5-difluorophenyl)ethyl)-2-(3-(difluoromethyl)-4,4,7,7-tetrafluoro-4,5,6,7-tetrahydro-1H-indazol-1-yl)acetamide] were 100% and 8.42 µM.
